Structures can show the parent of a compound that is named as a salt. Blank lines part the entries; values can stand above or below the compound they belong to.
Molecular target: T1, Recombinant NAMPT protein (Homo sapiens, UniProt P43490)
T1 construct: purchased BPS bioscience # 7176-1
Experiment: NAMPT enzyme inhibition assay (BPS bioscience NAMPT Inhibitor Screening Assay Kit, fluorescence)
Assay type: biochemical
Details: 30 min pre-incubation, 2 h at 30°C, compound 1000 nM to 3 nM, n=2
Method: The NAMPT enzyme activity inhibition ability of the compound of the present invention was evaluated using the NAMPT Inhibitor Screening Assay Kit (# 7176-1) from BPS bioscience. Recombinant NAMPT protein was added to each well of a black 96-well plate, and dilution buffer was added to a blank well instead of NAMPT protein. A 5 x concentrated compound solution was added and pre-incubated at room temperature (approximately 22°C) for 30 minutes before the start of the reaction so that the compound and protein might bind before the enzyme reaction. At this time, the concentration of NAMPT protein was adjusted and used according to the enzyme activity of each protein lot within the final concentration range of 4-10 ng/µl, and the test compound was serially diluted at a ratio of 1:3 from 1000 nM to 3 nM, and experiments were conducted with n=2 for about seven concentrations. A 2 x concentrated test buffer containing ATP (final concentration of 20 µM), nicotinamide (final concentration of 20 µM), phosphoribosyl pyrophosphate (PRPP, final concentration of 40 µM), and ethanol (final concentration of 1.5%) was added, and the plate was incubated at 30°C for two hours, after which the fluorescence of a resulting reaction product was measured with excitation of 340 nm and emission of 460 nm. The NAMPT enzyme activity (%) was calculated by subtracting the measurement value of the blank well without NAMPT protein from the measurement value of all wells, and then taking the measurement value of the control well without the compound as 100%.

T1 sequence (P43490 whole entry): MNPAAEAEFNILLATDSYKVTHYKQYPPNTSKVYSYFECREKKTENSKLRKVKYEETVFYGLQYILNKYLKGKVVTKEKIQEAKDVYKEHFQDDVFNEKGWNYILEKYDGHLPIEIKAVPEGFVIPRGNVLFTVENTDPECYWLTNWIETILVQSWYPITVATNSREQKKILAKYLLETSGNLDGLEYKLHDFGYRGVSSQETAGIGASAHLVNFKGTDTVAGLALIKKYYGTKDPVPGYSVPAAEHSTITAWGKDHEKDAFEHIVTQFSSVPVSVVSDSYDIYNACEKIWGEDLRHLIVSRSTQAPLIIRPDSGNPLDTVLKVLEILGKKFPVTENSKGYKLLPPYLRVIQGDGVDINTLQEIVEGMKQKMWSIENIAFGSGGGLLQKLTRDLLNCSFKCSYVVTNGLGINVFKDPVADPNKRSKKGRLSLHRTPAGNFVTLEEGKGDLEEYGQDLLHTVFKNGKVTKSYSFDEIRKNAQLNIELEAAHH

Compound: Cn1ccc(CS(=O)(=O)c2ccc(C(=O)NCCc3c[nH]c4ccncc34)cc2C#Cc2ccc(F)cc2)n1 [compound 3, N-(2-(1H-pyrrolo[3,2-c]pyridin-3-yl)ethyl)-3-((4-fluorophenyl)ethynyl)-4-(((1-methyl-1H-pyrazol-3-yl)methyl)sulfonyl)benzamide]
- IC50: < 500 nM

Compound: O=C(NCCCc1cn[nH]c1)c1ccc(S(=O)(=O)Cc2ccn(-c3ccc(C(F)(F)F)cc3)n2)c(C#Cc2ccc(F)cc2)c1 [compound 4, N-(3-(1H-pyrazol-4-yl)propyl)-3-((4-fluorophenyl)ethynyl)-4-(((1-(4-(trifluoromethyl)phenyl)-1H-pyrazol-3-yl)methyl)sulfonyl)benzamide]
- IC50: 500 to 1000 nM

Compound: Cc1cccc(CS(=O)(=O)c2ccc(C(=O)NCCCc3cn[nH]c3)cc2C#Cc2ccc(F)cc2)c1C [compound 5, N-(3-(1H-pyrazol-4-yl)propyl)-4-((2,3-dimethylbenzyl)sulfonyl)-3-((4-fluorophenyl)ethynyl)benzamide]
- IC50: ≥ 1000 nM

Compound: CNS(=O)(=O)c1ccc(C(=O)NCCCc2cn[nH]c2)cc1C#Cc1ccc(F)cc1 [compound 6, N-(3-(1H-pyrazol-4-yl)propyl)-3-((4-fluorophenyl)ethynyl)-4-(N-methylsulfamoyl)benzamide]
- IC50: ≥ 1000 nM

Compound: O=C(NCCCc1cn[nH]c1)c1ccc(S(=O)(=O)Cc2cccc(C(F)(F)F)c2)c(C#Cc2ccc(F)cc2)c1 [compound 9, N-(3-(1H-pyrazol-4-yl)propyl)-3-((4-fluorophenyl)ethynyl)-4-((3-(trifluoromethyl)benzyl)sulfonyl)benzamide]
- IC50: 500 to 1000 nM

Compound: O=C(NCc1ccn2ccnc2c1)c1ccc(S(=O)(=O)Cc2ccn(C3CCNCC3)n2)c(C#Cc2ccc(F)cc2)c1 [compound 122, 3-((4-fluorophenyl)ethynyl)-N-(imidazo[1,2-a]pyridin-7-ylmethyl)-4-(((1-(piperidin-4-yl)-1H-pyrazol-3-yl)methyl)sulfonyl)benzamide]
- IC50: ≥ 1000 nM

Compound: Nc1cccc(CS(=O)(=O)c2ccc(C(=O)NCc3ccn4ccnc4c3)cc2C#Cc2ccc(F)cc2)c1 [compound 147]
- IC50: < 500 nM

Compound: Cn1ccc(CS(=O)(=O)c2ccc(C(=O)NCc3ccn4ccnc4c3)cc2C#Cc2ccc(C(=O)NCCN3CCNCC3)cc2)n1 [compound 193, N-(imidazo[1,2-a]pyridin-7-ylmethyl)-4-(((1-methyl-1H-pyrazol-3-yl)methyl)sulfonyl)-3-((4-((2-(piperazin-1-yl)ethyl)carbamoyl)phenyl)ethynyl)benzamide]
- IC50: ≥ 1000 nM

Compound: COc1cc(C#Cc2cc(C(=O)NCCCc3cn[nH]c3)ccc2S(=O)(=O)Cc2ccn(C)n2)ccc1C [compound 235, N-(3-(1H-pyrazol-4-yl)propyl)-3-((3-methoxy-4-methylphenyl)ethynyl)-4-(((1-methyl-1H-pyrazol-3-yl)methyl)sulfonyl)benzamide]
- IC50: < 500 nM

Compound: Cn1ccc(CS(=O)(=O)c2ccc(C(=O)NCCCc3cn[nH]c3)cc2C#Cc2ccc(OC(F)(F)F)cc2)n1 [compound 236, N-(3-(1H-pyrazol-4-yl)propyl)-4-(((1-methyl-1H-pyrazol-3-yl)methyl)sulfonyl)-3-((4-(trifluoromethoxy)phenyl)ethynyl)benzamide]
- IC50: ≥ 1000 nM

Compound: Cn1ccc(CS(=O)(=O)c2ccc(C(=O)NCCCc3cn[nH]c3)cc2C#Cc2ccncc2)n1 [compound 237, N-(3-(1H-pyrazol-4-yl)propyl)-4-(((1-methyl-1H-pyrazol-3-yl)methyl)sulfonyl)-3-(pyridin-4-ylethynyl)benzamide]
- IC50: < 500 nM

Compound: CN(C)c1ccc(C#Cc2cc(C(=O)NCCCc3cn[nH]c3)ccc2S(=O)(=O)Cc2ccn(C)n2)cc1 [compound 244, N-(3-(1H-pyrazol-4-yl)propyl)-3-((4-(dimethylamino)phenyl)ethynyl)-4-(((1-methyl-1H-pyrazol-3-yl)methyl)sulfonyl)benzamide]
- IC50: ≥ 1000 nM

Compound: Cn1ccc(CS(=O)(=O)c2ccc(C(=O)NCCCc3cn[nH]c3)cc2C#Cc2ccc(C3CCNCC3)cc2)n1 [compound 245, N-(3-(1H-pyrazol-4-yl)propyl)-4-(((1-methyl-1H-pyrazol-3-yl)methyl)sulfonyl)-3-((4-(piperidin-4-yl)phenyl)ethynyl)benzamide hydrochloride]
- IC50: < 500 nM

Other lines, results leading:

- IC50: ≥ 1000 nM
Compound: Cn1ccc(CS(=O)(=O)c2ccc(C(=O)NCCc3ccc([N+](=O)[O-])nc3)cc2C#Cc2ccc(F)cc2)n1 [compound 7, 3-((4-fluorophenyl)ethynyl)-4-(((1-methyl-1H-pyrazol-3-yl)methyl)sulfonyl)-N-(2-(6-nitropyridin-3-yl)ethyl)benzamide]

- IC50: ≥ 1000 nM
Compound: Cn1ccc(CS(=O)(=O)c2ccc(C(=O)NCCc3ccc(N)nc3)cc2C#Cc2ccc(F)cc2)n1 [compound 8, N-(2-(6-aminopyridin-3-yl)ethyl)-3-((4-fluorophenyl)ethynyl)-4-(((1-methyl-1H-pyrazol-3-yl)methyl)sulfonyl)benzamide]

- IC50: < 500 nM
Compound: Cn1ccc(CNS(=O)(=O)c2ccc(C(=O)NCc3ccn4ccnc4c3)cc2C#Cc2ccc(F)cc2)n1 [compound 115, 3-((4-fluorophenyl)ethynyl)-N-(imidazo[1,2-a]pyridin-7-ylmethyl)-4-(N-((1-methyl-1H-pyrazol-3-yl)methyl)sulfamoyl)benzamide]

- IC50: < 500 nM
Compound: Cn1ccc(CS(=O)(=O)c2ccc(C(=O)NCc3ccn4ccnc4c3)cc2C#Cc2ccc3c(c2)CCNC3)n1 [compound 231, N-(imidazo[1,2-a]pyridin-7-ylmethyl)-4-(((1-methyl-1H-pyrazol-3-yl)methyl)sulfonyl)-3-((1,2,3,4-tetrahydroisoquinolin-6-yl)ethynyl)benzamide]

- IC50: < 500 nM
Compound: Nc1ccc(-n2ccc(CS(=O)(=O)c3ccc(C(=O)NCc4ccn5ccnc5c4)cc3C#Cc3ccc(F)cc3)n2)cc1 [compound 233, 4-(((1-(4-aminophenyl)-1H-pyrazol-3-yl)methyl)sulfonyl)-3-((4-fluorophenyl)ethynyl)-N-(imidazo[1,2-a]pyridin-7-ylmethyl)benzamide]

- IC50: < 500 nM
Compound: Cn1ccc(CS(=O)(=O)c2ccc(C(=O)NCc3ccc4nccn4c3)cc2C#Cc2ccc(N)cc2)n1 [compound 240, 3-((4-aminophenyl)ethynyl)-N-(imidazo[1,2-a]pyridin-6-ylmethyl)-4-(((1-methyl-1H-pyrazol-3-yl)methyl)sulfonyl)benzamide]

- IC50: 500 to 1000 nM
Compound: Cn1ccc(CS(=O)(=O)c2ccc(C(=O)NCc3ccn4ccnc4c3)cc2C#Cc2ccc(C(=O)NCCN3CCCCC3)cc2)n1 [compound 242, N-(imidazo[1,2-a]pyridin-7-ylmethyl)-4-(((1-methyl-1H-pyrazol-3-yl)methyl)sulfonyl)-3-((4-((2-(piperidin-1-yl)ethyl)carbamoyl)phenyl)ethynyl)benzamide]

- IC50: < 500 nM
Compound: Cn1ccc(CS(=O)(=O)c2ccc(C(=O)NCc3ccn4ccnc4c3)cc2C#Cc2ccc(N)nc2)n1 [compound 243, 3-((6-aminopyridin-3-yl)ethynyl)-N-(imidazo[1,2-a]pyridin-7-ylmethyl)-4-(((1-methyl-1H-pyrazol-3-yl)methyl)sulfonyl)benzamide]

From patent EP4722208A1, “NOVEL BENZAMIDE DERIVATIVE COMPOUND AND PHARMACEUTICAL COMPOSITION COMPRISING SAME” (Samjin Pharmaceutical Co., Ltd., priority 2023, dated 2024)
